Patent US12495798B2, “Nicotinamide compound and herbicidal composition comprising compound” (KOREA RESEARCH INSTITUTE OF CHEMICAL TECHNOLOGY, priority 2019, dated 2025)

Assays:
Format in all cases: in vivo
black nightshade [1] = assay: Herbicidal activity test against upland field weeds (foliar treatment test); design: key to Foliar treatment herbicidal activity, black nightshade: 0 (no control); 100 (complete control); conditions: scale 0-100; for Foliar treatment herbicidal activity, black nightshade: 75 g ai/ha
Outline: (§1)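 Greenhouse-grown plants (30±5 °C, 14/10 h light/dark) foliar hand-sprayed with compound in 50% acetone, 0.1% Tween-20 at 50 or 75 g a.i./ha. Control visually scored 0 (none) to 100 (complete) versus untreated after 14 days, or 21 days if needed.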

cocklebur [2] = assay: as above; conditions: Xanthium strumarium, scale 0-100; for pest or weed control at 75 g/ha: 75 g ai/ha
Outline: as §1

fall panicum [3] = assay: as above; design: key to Foliar treatment herbicidal activity, Fall panicum: 0 (no control); 100 (complete control); conditions: scale 0-100; for pest or weed control at 75 g/ha: Panicum dichotomiflorum, 75 g ai/ha
Outline: as §1

bindweed [4] = assay: as above; conditions: scale 0-100; for pest or weed control at 75 g/ha: 75 g ai/ha
Outline: as §1

indian jointvetch [5] = assay: as above; conditions: scale 0-100; for pest or weed control at 75 g/ha: 75 g ai/ha
Outline: as §1

cocklebur [6] = assay: Herbicidal activity test against upland field weeds (soil treatment test); design: key to Soil treatment herbicidal activity, Cocklebur: 0 (no control); 100 (complete control); conditions: scale 0 (no control) to 100 (complete control)
Experimental: Experimental Example 2: Herbicidal Activity Test Against Upland Field Weeds (Soil Treatment Test) Soil treatment was performed as follows: After filling a square plastic pot having a surface area of 350 cm^2 with sandy loam mixed with 1 g per pot (350 cm^2) of horticultural mixed fertilizer (N:P:K=11:10:11), seeds (10˜15 grains) or rootstocks (2 pieces) of 5 kinds of grassy weeds of sorghum, barnyard grass, quack grass, crabgrass, fall panicum, and 5 kinds of broadleaf weeds of black nightshade, indian jointvetch, velvetleaf, cocklebur, bindweed, which had been stored in a low temperature (6° C.), were sown. The day after sowing, test compound solutions were made by diluting with a preparation solution (including 50% acetone, 0.1% Tween-20) so that the final treatment amount of the test compounds was 50 or 75 g a.i./ha. The prepared test compound solution was used for treating soil surface by hand-spraying 14 mL per pot in a fume hood. After the treatment, it was managed under the same greenhouse conditions (average temperature 30±5° C., light/dark=14/10 hours), and after 14 days (after 21 days if necessary), the external symptoms and efficacy were investigated according to the scale of 0 (no control) to 100 (complete control). The results of Table 8 were obtained by evaluating weed control value to the untreated control by conducting visual assessment.

crabgrass [7] = assay: Herbicidal activity test against upland field weeds (foliar treatment test); conditions: Digitaria sanguinalis, scale 0-100; for pest or weed control at 75 g/ha: 75 g ai/ha
Outline: as §1

sorghum [8] = assay: Herbicidal activity test against upland field weeds (soil treatment test); design: key to Soil treatment herbicidal activity, Sorghum: 0 (no control); 100 (complete control); conditions: scale 0 (no control) to 100 (complete control); for plant injury at 75 g/ha: Sorghum, 75 g ai/ha
Outline: (§2)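 Pre-emergence soil surface spray, day after sowing, into sandy loam pots with fertilizer; compounds at 50 or 75 g a.i./ha in 50% acetone, 0.1% Tween-20. Greenhouse at 30±5 °C, 14/10 h light/dark; visual control rated 0–100 against untreated after 14 days (21 if needed).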

barnyard grass [9] = assay: Herbicidal activity test against upland field weeds (foliar treatment test); conditions: Echinochloa crus-galli, scale 0-100; for pest or weed control at 75 g/ha: 75 g ai/ha
Outline: as §1

indian jointvetch [10] = assay: Herbicidal activity test against upland field weeds (soil treatment test); design: key to Soil treatment herbicidal activity, Indian jointvetch: 0 (no control); 100 (complete control); conditions: scale 0 (no control) to 100 (complete control); for Soil treatment herbicidal activity, Indian jointvetch: 75 g ai/ha
Outline: as §2

fall panicum [11] = assay: as above; design: key to Soil treatment herbicidal activity, Fall panicum: 0 (no control); 100 (complete control); conditions: scale 0 (no control) to 100 (complete control); for Soil treatment herbicidal activity, Fall panicum: 75 g ai/ha
Outline: as §2

quack grass [12] = assay: as above; design: key to Soil treatment herbicidal activity, quack grass: 0 (no control); 100 (complete control); conditions: scale 0 (no control) to 100 (complete control)
Outline: as §2

barnyard grass [13] = assay: as above; design: key to Soil treatment herbicidal activity, barnyard grass: 0 (no control); 100 (complete control); conditions: scale 0 (no control) to 100 (complete control); for Soil treatment herbicidal activity, barnyard grass: 75 g ai/ha
Outline: as §2

bindweed [14] = assay: as above; design: key to Soil treatment herbicidal activity, Bindweed: 0 (no control); 100 (complete control); conditions: scale 0 (no control) to 100 (complete control); for pest or weed control at 75 g/ha: 75 g ai/ha
Outline: as §2

crabgrass [15] = assay: as above; conditions: Digitaria sanguinalis, 50 g ai/ha, scale 0 (no control) to 100 (complete control)
Outline: as §2

velvetleaf [16] = assay: Herbicidal activity test against upland field weeds (foliar treatment test); design: key to Foliar treatment herbicidal activity, velvet leaf: 0 (no control); 100 (complete control)
Outline: as §1

black nightshade [17] = assay: Herbicidal activity test against upland field weeds (soil treatment test); design: key to Soil treatment herbicidal activity, black nightshade: 0 (no control); 100 (complete control); conditions: scale 0 (no control) to 100 (complete control)
Outline: as §2

sorghum [18] = assay: Herbicidal activity test against upland field weeds (foliar treatment test); design: key to Foliar treatment herbicidal activity, Sorghum: 0 (no control); 100 (complete control); conditions: scale 0-100; for plant injury at 75 g/ha: Sorghum, 75 g ai/ha
Outline: as §1

quack grass [19] = assay: as above; design: key to Foliar treatment herbicidal activity, quack grass: 0 (no control); 100 (complete control); conditions: scale 0-100
Outline: as §1

velvetleaf [20] = assay: Herbicidal activity test against upland field weeds (soil treatment test); design: key to Soil treatment herbicidal activity, velvet leaf: 0 (no control); 100 (complete control); conditions: scale 0 (no control) to 100 (complete control)
Outline: as §2

| Structure (SMILES) | Foliar treatment herbicidal activity, black nightshade (black nightshade [1]) | pest or weed control at 75 g/ha (cocklebur [2]) | pest or weed control at 75 g/ha (fall panicum [3]) | pest or weed control at 75 g/ha (bindweed [4]) | pest or weed control at 75 g/ha (indian jointvetch [5]) | pest or weed control at 75 g/ha (crabgrass [7]) | plant injury at 75 g/ha (sorghum [8]) | pest or weed control at 75 g/ha (barnyard grass [9]) | Soil treatment herbicidal activity, Indian jointvetch (indian jointvetch [10]) | Soil treatment herbicidal activity, Fall panicum (fall panicum [11]) | Soil treatment herbicidal activity, quack grass (quack grass [12]; 75 g ai/ha) | Soil treatment herbicidal activity, barnyard grass (barnyard grass [13]) | pest or weed control at 75 g/ha (bindweed [14]) | Soil treatment herbicidal activity, black nightshade (black nightshade [17]; 75 g ai/ha) | plant injury at 75 g/ha (sorghum [18]) | Foliar treatment herbicidal activity, quack grass (quack grass [19]; 75 g ai/ha) | Soil treatment herbicidal activity, velvet leaf (velvetleaf [20]; 75 g ai/ha) | further results |
| --- | --- | --- | --- | --- | --- | --- | --- | --- | --- | --- | --- | --- | --- | --- | --- | --- | --- | --- |
| C#CCN(Cc1nnn(C)n1)c1nc(C(F)(F)F)ccc1C(=O)Nc1nnnn1C [Compound No. 2-28, N-(1-methyl-1H-tetrazol-5-yl)-2-(((2-methyl-2H-tetrazol-5-yl)methyl)(prop-2-yn-1-yl)amino)-6-(trifluoromethyl)nicotinamide] | – | – | – | – | – | – | – | – | – | – | – | – | – | – | – | – | – | pest or weed control at 50 g/ha (black nightshade [1]; Solanum nigrum, 50 g ai/ha): 90%; pest or weed control at 50 g/ha (cocklebur [2]; 50 g ai/ha): 80%; Foliar treatment herbicidal activity, Fall panicum (fall panicum [3]; 50 g ai/ha): 0; pest or weed control at 50 g/ha (bindweed [4]; 50 g ai/ha): 40%; pest or weed control at 50 g/ha (indian jointvetch [5]; 50 g ai/ha): 40%; Soil treatment herbicidal activity, Cocklebur (cocklebur [6]; 50 g ai/ha): 0; pest or weed control at 50 g/ha (crabgrass [7]; 50 g ai/ha): 30%; Soil treatment herbicidal activity, Sorghum (sorghum [8]; 50 g ai/ha): 0; pest or weed control at 50 g/ha (barnyard grass [9]; 50 g ai/ha): 70%; pest or weed control at 50 g/ha (indian jointvetch [10]; 50 g ai/ha): 70%; pest or weed control at 50 g/ha (fall panicum [11]; Panicum dichotomiflorum, 50 g ai/ha): 70%; Soil treatment herbicidal activity, quack grass (quack grass [12]; 50 g ai/ha): 0; pest or weed control at 50 g/ha (barnyard grass [13]; Echinochloa crus-galli, 50 g ai/ha): 70%; Soil treatment herbicidal activity, Bindweed (bindweed [14]; 50 g ai/ha): 0; pest or weed control at 50 g/ha (crabgrass [15]): 90%; pest or weed control at 50 g/ha (velvetleaf [16]; Abutilon theophrasti, 50 g ai/ha, scale 0-100, read-out: Foliar treatment herbicidal activity, velvet leaf): 40%; Soil treatment herbicidal activity, black nightshade (black nightshade [17]; 50 g ai/ha): 100; Foliar treatment herbicidal activity, Sorghum (sorghum [18]; 50 g ai/ha): 0; Foliar treatment herbicidal activity, quack grass (quack grass [19]; 50 g ai/ha): 0; Soil treatment herbicidal activity, velvet leaf (velvetleaf [20]; 50 g ai/ha): 100 |
| CCN(Cc1nnn(C)n1)c1nc(C(F)(F)F)ccc1C(=O)Nc1nnnn1C [Compound No. 2-27, 2-(ethyl((2-methyl-2H-tetrazol-5-yl)methyl)amino)-N-(1-methyl-1H-tetrazol-5-yl)-6-(trifluoromethyl)nicotinamide] | 100 | 98% | 70% | 40% | 70% | 20% | 50% | 80% | 100 | 100 | 0 | 100 | 98% | 100 | 40% | 0 | 100 | Soil treatment herbicidal activity, Cocklebur (cocklebur [6]; 75 g ai/ha): 100; Foliar treatment herbicidal activity, velvet leaf (velvetleaf [16]; 75 g ai/ha, scale 0-100): 100 |
| CN(Cc1ncn(C)n1)c1nc(C(F)(F)F)ccc1C(=O)Nc1nnnn1C [Compound No. 2-35, 2-(methyl((1-methyl-1H-1,2,4-triazol-3-yl)methyl)amino)-N-(1-methyl-1H-tetrazol-5-yl)-6-(trifluoromethyl)nicotinamide] | 100 | 90% | 80% | 70% | 80% | 70% | 90% | 80% | 100 | 100 | 0 | 100 | 70% | 100 | 70% | 0 | 100 | pest or weed control at 75 g/ha (cocklebur [6]; Xanthium strumarium, 75 g ai/ha): 95%; pest or weed control at 75 g/ha (velvetleaf [16]; Abutilon theophrasti, 75 g ai/ha, scale 0-100, read-out: Foliar treatment herbicidal activity, velvet leaf): 90% |
